Laboratory results as given in patent US20010025105A1, “Certain substituted 1-aryl-3-piperazine-1'-yl propanones” (Molecular Geriatarics Corporation, priority 1997, published 2001).

System: TG3 immunoreactivity in OKA treated MSN1a cells
Assay: MSN1a cell culture model, ELISA with TG3 antibody, okadaic acid treated cells
Type: cell-based, human
Conditions: 1 μM OKA, 2 hrs at 37° C., read-out: IC50 for inhibition of TG3 immunoreactivity in OKA treated MSN1a cells
Procedure, shortened: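 Human MSN1a neuroblastoma cells (2×10^4/well) in KRH pH 7.4 were exposed 2 h at 37 °C to 1 μM okadaic acid plus 0–64 μM compound (0.26% DMSO final). Lysates were coated onto ELISA plates and probed with TG3 and an alkaline phosphatase secondary. Absorbance was read at 405 nm with p-nitrophenyl phosphate substrate.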

Work on Cl.Cl.O=C(CCN1CCN(Cc2ccccc2)CC1)c1ccc(F)c2ccccc12 [Example 21, 1-(4″-Fluoronaphth-1″-yl)-3-(4′-benzyl-1′-piperazinyl)-1-propanone dihydrochloride] yielded an IC50 of 6.6 µM.
